The values that follow come from PMC12797170, “Potent Competitive Inhibitors of Ecto-5′-nucleotidase (CD73) based on 6‑(Het)aryl-7-deazapurine Ribonucleoside 5′‑O‑Bisphosphonates” (ACS Pharmacology & Translational Science, 2025).

Broadly, the half-life is how long it takes for the measured level to halve. By IC50 is commonly meant the concentration that inhibits the measured activity by half. A high value points to weaker potency in that assay. The solubility is how much of the substance goes into solution per volume. As a reminder, the clearance is the volume of plasma or blood freed of the substance per unit of time.

Converted amounts (≈) assume the structure as drawn.

Data set [1] in a line: Plasma protein binding, equilibrium dialysis, human plasma. The data set is classed as in vitro ADME. The conditions noted are these: undiluted plasma.
Data set [2] can be described thus: in vitro. Particulars: human, plasma.
The subject of data set [3] is nonmalignant human dermal fibroblasts (NHDF). The data set can be described thus: In vitro cytotoxic activity. The data set is classed as cell-based. On the procedure:
(§1) All the compounds were also tested for their in vitro cytotoxic activity on a small panel of four cancer cell lines (CCRF-CEM, HepG2, HeLa S3, HL-60) and nonmalignant human dermal fibroblasts (NHDF).

The subject of data set [4] is HL-60. The data set can be described thus: In vitro cytotoxic activity. It counts as cell-based. Particulars: Homo sapiens. The protocol: as §1
Data set [5] has as its system CCRF-CEM. The data set can be described thus: In vitro cytotoxic activity. It counts as cell-based. The conditions noted are these: Homo sapiens. The protocol:
as §1

Data set [6] concerns HeLa S3. The data set can be described thus: In vitro cytotoxic activity. The data set is classed as cell-based. Particulars: Homo sapiens. The protocol:
as §1

Data set [7] deals with HepG2. The data set can be described thus: In vitro cytotoxic activity. It counts as cell-based. Particulars: Homo sapiens. On the procedure: as §1
The nature of data set [8]: Kinetic solubility in PBS. Particulars: phosphate-buffered saline, pH 7.4, aqueous buffer, kinetic from dmso stock. The data set is classed as physicochemical. In a few lines:
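DMSO stocks diluted into PBS pH 7.4 to 100 μM and shaken 2 h at room temperature in duplicate, then filtered by centrifugation. Filtrates diluted 1:99 in 50% acetonitrile. Quantified by Echo-MS against calibration standards spanning 0.05–4 μM.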

Data set [9] is described as follows: Microsomal stability assay, mouse liver microsomes. The data set is classed as in vitro ADME. The conditions noted are these: for Mics (m) comp remaining 60 min: 10 μM; for microsomal CLint at 10 µM: pooled liver microsomes, pH 7.4, read-out: Mics (m) CLint. (In general: Liver microsomes are vesicles of endoplasmic reticulum, rich in cytochrome P450 enzymes.)
Data set [10] in a line: Microsomal stability assay, human liver microsomes. The conditions noted are these: for Mics (hu) comp remaining 60 min: 10 μM; for microsomal CLint at 10 µM: pooled liver microsomes, pH 7.4, read-out: Mics (hu) CLint. The data set is classed as in vitro ADME.
Data set [11] can be described thus: in vitro. Particulars: mouse, plasma.
Data set [12] deals with T1, recombinant human CD73 (hCD73) (Homo sapiens, UniProt P21589).
T1 sequence (P21589 27-574): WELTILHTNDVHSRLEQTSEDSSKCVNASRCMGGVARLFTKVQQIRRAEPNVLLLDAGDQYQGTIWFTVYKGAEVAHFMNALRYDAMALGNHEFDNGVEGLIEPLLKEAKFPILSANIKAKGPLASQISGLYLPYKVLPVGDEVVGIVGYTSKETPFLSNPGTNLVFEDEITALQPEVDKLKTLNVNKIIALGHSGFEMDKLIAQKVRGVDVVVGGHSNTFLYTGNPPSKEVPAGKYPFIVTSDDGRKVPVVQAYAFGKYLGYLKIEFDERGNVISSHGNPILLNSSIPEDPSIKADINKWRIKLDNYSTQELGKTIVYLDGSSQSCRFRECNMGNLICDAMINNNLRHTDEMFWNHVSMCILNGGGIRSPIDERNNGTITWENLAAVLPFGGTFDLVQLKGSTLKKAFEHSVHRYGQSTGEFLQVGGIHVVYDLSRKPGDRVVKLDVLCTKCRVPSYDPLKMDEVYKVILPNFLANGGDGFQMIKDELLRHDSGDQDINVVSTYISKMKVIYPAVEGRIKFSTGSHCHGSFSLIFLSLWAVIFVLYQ
Put plainly: CD73 activity assay on recombinant human CD73. It counts as biochemical. The conditions noted are these: ΔGexp = RT ln Ki.

Data set [13] is described as follows: Plasma protein binding, mouse plasma. Particulars: mouse, plasma. It counts as in vitro ADME.
Data set [14] can be described thus: In vivo pharmacokinetic study, intravenous. The conditions noted are these: plasma, 1 mg/kg, intravenous; for half-life: male, CD-1, mouse, iv, footnote: t1/2 stability in plasma, text: half-life in mouse PK; for clearance: mouse, male CD-1 mice, single dose, read-out: Cl (obs), observed clearance. Set-up: species or system male CD-1 mice. On the procedure: The pharmacokinetic study was performed by Bienta (Enamine Biology Services) using male CD-1 mice (3 animals, 9 weeks old, body weight ranging from 29.2 to 33.7 g) following intravenous administration. Levels of the test compound were determined by LC-MS/MS in blood plasma over time (seven sampling time points: 5, 15, 30, 60, 120, 240, and 480 min) after a single dose.
Animal treatment and samples preparation were conducted by the Animal Laboratory personnel at Enamine/Bienta.

Where [15] appears, read: human plasma protein binding, read-out: PPB (hu) (converted).
Setting [16] is: Tables 2 and 4, mouse plasma, read-out: fup, fraction unbound in mouse plasma.
Setting [17] is: mouse plasma protein binding, read-out: PPB (m) (converted).

`O=P(O)(O)CP(=O)(O)OC[C@H]1O[C@@H](n2ccc3c(-c4cc5ccccc5[nH]4)nc(Cl)nc32)[C@H](O)[C@@H]1O` [7B.24]: the fraction unbound at 4 h, 100 µM is 0.012 in data set [1] (setting [15]), 0.21 in data set [13] (setting [16]) and 0.201 in data set [13] (setting [17]). The half-life at 10 µM in data set [2] and in [11] was greater than 2 h in each case. In addition, the IC50 in data set [3], in data set [4], in [5], in data set [6] and in data set [7] was greater than 10 µM each time. The same compound came in with a solubility at 2 h in data set [8] greater than 100 µM. In addition, the “Mics (m) comp remaining 60 min” value in [9] worked out at 72%. In addition, the microsomal CLint at 10 µM in data set [9] was 12 µL/min/mg; in [10], less than 1 µL/min/mg. Further, the “Mics (hu) comp remaining 60 min” value in data set [10] came to 111%. Moreover, the “dG_exp, experimental binding free energy” value in data set [12] is listed as “–15.7 kcal/mol”. The same compound gave a half-life in data set [14] of 0.617 h. Further, in data set [14], the clearance turned out to be 12 mL/min/kg.

With `O=P(O)(O)CP(=O)(O)OC[C@H]1O[C@@H](n2ccc3c(-c4ccc5cc(Cl)ccc5c4)nc(Cl)nc32)[C@H](O)[C@@H]1O` [7B.27], the fraction unbound at 4 h, 100 µM was no more than 0.01 in data set [1] (setting [15]), 0.04 in [13] (setting [16]) and 0.036 in data set [13] (setting [17]). The half-life at 10 µM in data set [2] and in data set [11] was greater than 2 h throughout. Besides, the IC50 in [3], in data set [4], in [5], in data set [6] and in [7] was greater than 10 µM each time. The compound also had a solubility at 2 h in data set [8] of 89 µM (≈ 53.8 µg/mL). Further, the “Mics (m) comp remaining 60 min” value in data set [9] was 140%. For the same compound, the microsomal CLint at 10 µM in data set [9] and in [10] was less than 2 µL/min/mg throughout. Besides, the “Mics (hu) comp remaining 60 min” value in data set [10] is listed as 148%. Further, in data set [12], the “dG_exp, experimental binding free energy” value was “–15.3 kcal/mol”. For the same compound, the half-life in data set [14] turned out to be 2.43 h. Further, the clearance in data set [14] was determined as 6.7 mL/min/kg.

In the case of `COC(=O)c1ccc2cc(-c3nc(Cl)nc4c3ccn4[C@@H]3O[C@H](COP(=O)(O)CP(=O)(O)O)[C@@H](O)[C@H]3O)ccc2c1` [7B.29], the fraction unbound at 4 h, 100 µM in data set [1] (setting [15]) is no more than 0.01; in [13] (setting [16]) it was 0.23; in data set [13] (setting [17]), 0.234. For the same compound, the half-life at 10 µM in data set [2] and in data set [11] was greater than 2 h each time. Also, the IC50 in data set [3], in [4], in [5], in [6] and in data set [7] was greater than 10 µM each time. The same compound returned a solubility at 2 h in data set [8] of 85 µM (≈ 53.4 µg/mL). In addition, the “Mics (m) comp remaining 60 min” value in data set [9] is given as 112%. Moreover, the microsomal CLint at 10 µM in data set [9] and in data set [10] was less than 2 µL/min/mg throughout. In [10], the “Mics (hu) comp remaining 60 min” value is listed as 132%. For the same compound, the “dG_exp, experimental binding free energy” value in [12] is “–14.6 kcal/mol”. This compound also returned a half-life in data set [14] of 0.138 h. The clearance in [14] is 7.2 mL/min/kg.

For `O=P(O)(O)CP(=O)(O)OC[C@H]1O[C@@H](n2ccc3c(-c4cccc5c4CCCC5)nc(F)nc32)[C@H](O)[C@@H]1O` [14D.12], the results for the fraction unbound at 4 h, 100 µM in data set [1] (setting [15]), in data set [13] (setting [16]) and in data set [13] (setting [17]) were 0.023, 0.23 and 0.235, respectively. Also, the half-life at 10 µM in [2] and in data set [11] was greater than 2 h each time. The IC50 in data set [3], in data set [4], in [5], in [6] and in data set [7] was greater than 10 µM in each case. In data set [8], the solubility at 2 h is 84 µM (≈ 46.8 µg/mL). Moreover, in data set [9], the “Mics (m) comp remaining 60 min” value was determined as 116%. For the same compound, the microsomal CLint at 10 µM in data set [9] and in [10] was less than 1 µL/min/mg in each case. In addition, the “Mics (hu) comp remaining 60 min” value in data set [10] is 99%. Further, the “dG_exp, experimental binding free energy” value in data set [12] is listed as “–15.1 kcal/mol”. Besides, the half-life in data set [14] was determined as 2.25 h. The clearance in [14] was 1.4 mL/min/kg.

As for `O=P(O)(O)CP(=O)(O)OC[C@H]1O[C@@H](n2ccc3c(-c4cccc5ccccc45)nc(F)nc32)[C@H](O)[C@@H]1O` [14D.6], the fraction unbound at 4 h, 100 µM was 0.033 in data set [1] (setting [15]) and 0.42 in [13] (setting [16]). Also, the half-life at 10 µM in [2] and in [11] was greater than 2 h throughout. Also, the IC50 in data set [3], in data set [4], in data set [5], in [6] and in data set [7] was greater than 10 µM throughout. The solubility at 2 h in data set [8] turned out to be 89 µM (≈ 49.3 µg/mL). For the same compound, the “Mics (m) comp remaining 60 min” value in data set [9] worked out at 111%. Also, the microsomal CLint at 10 µM in data set [9] and in data set [10] was less than 1 µL/min/mg each time. For the same compound, in data set [10], the “Mics (hu) comp remaining 60 min” value is on record as 100%. For the same compound, the “dG_exp, experimental binding free energy” value in [12] is recorded as “–14.4 kcal/mol”. Further, the half-life in [14] stood at 2.3 h. Further, the clearance in data set [14] stood at 1.3 mL/min/kg.

On to `O=P(O)(O)CP(=O)(O)OC[C@H]1O[C@@H](n2ccc3c(-c4ccnc5ccccc45)ncnc32)[C@H](O)[C@@H]1O` [4A.17], for which the fraction unbound at 4 h, 100 µM in data set [1] (Tables 1 and 3, human plasma as printed in footnote, read-out: fup, fraction unbound in human plasma) is 0.8; in data set [1] (setting [15]), 0.257; in data set [13] (setting [17]) it was 0.8. In addition, the half-life at 10 µM in data set [2] and in data set [11] was greater than 2 h in each case. The IC50 in [3], in [4], in [5], in data set [6] and in [7] was greater than 10 µM throughout. Moreover, in data set [8], the solubility at 2 h was greater than 100 µM. Moreover, the “Mics (m) comp remaining 60 min” value in [9] is recorded as 79%. Moreover, the microsomal CLint at 10 µM in data set [9] was 9 µL/min/mg; in [10], less than 1 µL/min/mg. In addition, the “dG_exp, experimental binding free energy” value in [12] is on record as “–14.3 kcal/mol”. Moreover, the half-life in [14] worked out at 2.15 h. Moreover, in [14], the clearance came out at 7.2 mL/min/kg.

Consider `O=P(O)(O)CP(=O)(O)OC[C@H]1O[C@@H](n2ccc3c(-c4ccc5cc(O)ccc5c4)nc(Cl)nc32)[C@H](O)[C@@H]1O` [7B.32], for which the fraction unbound at 4 h, 100 µM in data set [1] (setting [15]) is 0.084; in data set [13] (setting [16]) it was 0.2; in data set [13] (setting [17]) it was 0.198. Further, the half-life at 10 µM in data set [2] and in data set [11] was greater than 2 h each time. In addition, the IC50 in data set [3], in data set [4], in data set [5], in data set [6] and in data set [7] was greater than 10 µM each time. The compound also returned a solubility at 2 h in data set [8] greater than 100 µM. The “Mics (m) comp remaining 60 min” value in data set [9] was 111%. In addition, the microsomal CLint at 10 µM in [9] and in data set [10] was less than 2 µL/min/mg in each case. Besides, the “Mics (hu) comp remaining 60 min” value in [10] worked out at 104%. For the same compound, the “dG_exp, experimental binding free energy” value in [12] is “–15.8 kcal/mol”. The half-life in data set [14] came out at 0.113 h. Further, the clearance in [14] amounted to 11 mL/min/kg.
